This is an account of results in article PMC5607274, “An iterative compound screening contest method for identifying target protein inhibitors using the tyrosine-protein kinase Yes” (Scientific Reports, 2017).

The first experiment deals with T1, human recombinant Yes [a.a. 2–543 (end)] (Homo sapiens, UniProt P07947).
T1 construct: human recombinant Yes [a.a; 2–543 (end)]; purchased BPS Bioscience 40488
T1 sequence (P07947 2-543): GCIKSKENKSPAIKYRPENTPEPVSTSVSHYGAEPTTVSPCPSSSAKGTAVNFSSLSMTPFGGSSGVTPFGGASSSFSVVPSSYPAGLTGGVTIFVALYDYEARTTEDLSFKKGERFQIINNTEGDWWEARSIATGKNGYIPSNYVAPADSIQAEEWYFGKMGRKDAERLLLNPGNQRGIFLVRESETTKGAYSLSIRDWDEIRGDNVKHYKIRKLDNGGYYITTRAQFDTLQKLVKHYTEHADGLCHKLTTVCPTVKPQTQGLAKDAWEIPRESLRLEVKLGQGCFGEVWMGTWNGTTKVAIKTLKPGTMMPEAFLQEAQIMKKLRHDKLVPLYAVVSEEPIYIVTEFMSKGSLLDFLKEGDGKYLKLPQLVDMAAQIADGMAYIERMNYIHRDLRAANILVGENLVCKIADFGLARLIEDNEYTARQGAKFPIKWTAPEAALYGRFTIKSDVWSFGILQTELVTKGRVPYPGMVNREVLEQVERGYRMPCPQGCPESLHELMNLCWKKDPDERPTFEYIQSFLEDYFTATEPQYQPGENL
The experiment is described as follows: ADP-Glo kinase assay, inhibition rates of Yes phosphorylation activity (first and second screening). It is filed as biochemical. The following applies: first screening; mean of n = 4 wells; 10 μmol L−1 compound. A digest of the protocol:
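Hits from a first pass were rescreened after re-dissolution from fresh powder. The first pass reported the mean inhibition rate of quadruplicate wells per compound. Activity was that of recombinant human Yes [a.a. 2–543] kinase, read out with the ADP-Glo ADP-detection method.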
On the technique in general: In ADP-Glo the light output rises with the ADP produced.
Regarding `O=C(NCc1ccc(-c2nc3ccccc3s2)o1)c1ccco1` [Compound Z218238558], the “First screening IR (inhibition rate)” value is 12%.
Turning to `COc1cc(NC(=O)COC(=O)c2cc(-c3cccs3)nc3onc(C)c23)cc(OC)c1` [Compound Z218834328], the “First screening IR (inhibition rate)” value worked out at 6%.
Turning to `Cc1ccnc(NC(=O)c2cc(-c3ccc(F)cc3)nc3onc(C)c23)c1` [Compound Z219812624], the “First screening IR (inhibition rate)” value is given as -14%.
On to `Cc1[nH]c(=O)[nH]c(=O)c1CCC(=O)N1CCC(CCc2ccccc2)CC1` [Compound Z219953062], for which the “First screening IR (inhibition rate)” value amounted to 4%.
Still for that read-out and setting: for `N#Cc1c(CN2CCN(S(=O)(=O)c3cc(Cl)ccc3Cl)CC2)cn2ccccc12` [Compound Z220381008] the value was -9%; for `Cc1ccccc1-c1nc(SCc2cn3cc(Cl)ccc3n2)n[nH]1` [Compound Z221422064], 36%.
As for `Cc1nn(C)c2nc(-c3ccccc3)cc(C(=O)Nc3ccc4c(c3)OCO4)c12` [Compound Z222976544], the “First screening IR (inhibition rate)” value was -2%.
On the same count and under the same terms, in the case of `Cl.Fc1c(-c2ccccc2)nc2ccc(Cl)cc2c1-c1ccccc1` [Compound Z223042638] it was -12%.
For `Cl.Fc1c(-c2ccccc2)nc2ccccc2c1-c1ccccc1` [Compound Z223042658], the “First screening IR (inhibition rate)” value was 30%.
Same read-out and setting: in the case of `CCCCN(C1CCS(=O)(=O)C1)S(=O)(=O)c1ccc(Br)cc1Cl` (stereo not drawn) [Compound Z223263980] it was 5%; in that of `COc1cc(C(=O)NCCc2ccc(-n3cccn3)cc2)ccc1C` [Compound Z223337292], 3%.
On to `CC1=CC(=C(C#N)c2nc3ccccc3s2)C=C(C)N1c1ccc2c(c1)OCCO2` [Compound Z223450274], for which the “First screening IR (inhibition rate)” value is given as -6%.
Consider `Cn1ncc2c(N3CCNCC3)ncnc21` [Compound Z223639244], for which the “First screening IR (inhibition rate)” value is on record as -11%.
The same measure, in the same setting: for `CCOc1ccc(N2C(C)=CC(=C(C#N)c3nc4ccccc4s3)C=C2C)cc1` [Compound Z223690154] the value was 20%; for `Cn1c(=O)n(CCN2CCOCC2)c(=O)c2c1nc1n2CCN1c1ccc(Oc2ccccc2)cc1` [Compound Z223838602], 49%; for `O=C(O)c1cc(-c2ccccc2)nc2c1cnn2Cc1ccccc1Cl` [Compound Z223844412], 7%.
As to `CCn1ncc2c(C(=O)NC(C)C)cc(-c3ccccc3)nc21` [Compound Z223848612], the “First screening IR (inhibition rate)” value was 6%.
Same read-out and setting: for `CCn1ncc2c(C(=O)N(C)Cc3ccccc3)cc(-c3ccccc3)nc21` [Compound Z223859126] the value was -16%; for `CCN(CC)C(=O)c1cc(-c2cc(C)oc2C)nc2c1cnn2C(C)C` [Compound Z223881508], -12%.
As for `COC(=O)c1cc(NC(=O)C2=C(Cl)CCCC2)cc(C(=O)OC)c1` [Compound Z223943920], the “First screening IR (inhibition rate)” value is -1%.
Take `O=C(O)/C=C/c1ccc(NC(=O)CSC(c2ccccc2)c2ccccc2)cc1` [Compound Z224289160]: the “First screening IR (inhibition rate)” value is recorded as -8%.
As for `CCn1ncc2c(C(=O)Nc3ncc(C)s3)cc(-c3ccccc3)nc21` [Compound Z224316064], the “First screening IR (inhibition rate)” value was 10%.
Consider `CCn1ncc2c(C(=O)NCc3cccc(OC)c3)cc(-c3ccccc3)nc21` [Compound Z224328394], for which the “First screening IR (inhibition rate)” value is listed as 6%.
With `O=S(=O)(c1ccccc1Cl)N1CCN(Cc2nc(-c3cccc(C(F)(F)F)c3)no2)CC1` [Compound Z224344580], the “First screening IR (inhibition rate)” value was -5%.
Regarding `CCn1ncc2c(C(=O)N(C)Cc3ccc(SC)cc3)cc(-c3ccccc3)nc21` [Compound Z224588706], the “First screening IR (inhibition rate)” value is reported as -5%.
Take `CCn1ncc2c(C(=O)N3CCN(CC(=O)Nc4cccc(C)c4C)CC3)cc(-c3ccccc3)nc21` [Compound Z224933090]: the “First screening IR (inhibition rate)” value is -4%.
Turning to `CCn1ncc2c(C(=O)NCc3cc(OC)c(OC)cc3OC)cc(-c3ccccc3)nc21` [Compound Z224953910], the “First screening IR (inhibition rate)” value is 2%.
On to `Cc1ccc(-c2cc(C(=O)NC(C)c3ccccn3)c3cnn(C(C)C)c3n2)cc1` (stereo not drawn) [Compound Z225035912], for which the “First screening IR (inhibition rate)” value is 16%.
The same measure, in the same setting: in the case of `CCn1ncc2c(C(=O)Nc3ccc(F)c([N+](=O)[O-])c3)cc(-c3cccs3)nc21` [Compound Z225316878] it was 31%.
For the compound `Cc1cccn2c(NC(=O)c3cccc(S(=O)(=O)NC(C)C)c3)c(-c3ccccc3)nc12` [Compound Z225376048], the “First screening IR (inhibition rate)” value was 0%.
On the same count and under the same terms, for `CCOC(=O)c1[nH]c(C)c(C(=O)CSc2n[nH]c(-c3ccccc3)n2)c1C` [Compound Z225443610] the value was -8%.
In the case of `Cc1csc(CNC(=O)c2cc(-c3ccccc3)nc3c2cnn3C(C)C)n1` [Compound Z225893888], the “First screening IR (inhibition rate)” value worked out at 1%.
With `CCN(CC)S(=O)(=O)c1c[nH]c(C(=O)NCc2nc(C)cs2)c1` [Compound Z225896678], the “First screening IR (inhibition rate)” value is recorded as 9%.
Still for that read-out and setting: for `Cc1ccc(-c2cc(C(=O)NC(c3ccccc3F)c3nccn3C)c3cnn(C(C)C)c3n2)s1` (stereo not drawn) [Compound Z225919834] the value was -2%; for `COc1ccc(/C=C/c2noc(C)c2NC(=O)c2cccs2)cc1` [Compound Z226257158], 4%.
Still for that read-out and setting: for `O=C(NCc1ccc(COCC(F)(F)F)cc1)c1ccc2nc[nH]c2c1` [Compound Z226277016] the value was 13%; for `CC1CN(C(C)(C)CNC(=O)c2ccc(NS(=O)(=O)c3ccccc3)cc2)CC(C)O1` (stereo not drawn) [Compound Z226329302], 6%; for `O=C(CCNC(=O)c1ccco1)Nc1ccc2nc(N3CCCC3)sc2c1` [Compound Z226430254], 3%.
For `Nc1nc(CSc2ncc(-c3ccc(F)cc3)o2)nc2ccccc12` [Compound Z226851604], the “First screening IR (inhibition rate)” value is on record as -34%.
On to `COCCOC(=O)c1cc(-c2ccc(C)cc2)nc2c1cnn2C(C)C` [Compound Z226924464], for which the “First screening IR (inhibition rate)” value came to 6%.
`CCn1ncc2c(C(=O)OCC#N)cc(-c3cccs3)nc21` [Compound Z227189870]: the “First screening IR (inhibition rate)” value was found to be 2%.
On the same count and under the same terms, for `Cc1cc(COC(=O)c2cc(-c3ccc4c(c3)OCCO4)nc3c2cnn3C(C)C)on1` [Compound Z227321660] the value was 48%; for `CCCn1c(CSc2ncn(-c3ccccc3)n2)nc2cc(S(=O)(=O)N(C)C)ccc21` [Compound Z227429876], -10%; for `CCNC(=O)c1cc(-c2ccccc2)nc2c1cnn2Cc1ccccc1` [Compound Z227991512], 6%.
Take `CCN(CC)CCn1c(NC(=O)c2ccc(OCC(F)(F)F)nc2)nc2ccccc21` [Compound Z228032620]: the “First screening IR (inhibition rate)” value amounted to 14%.
Same read-out and setting: in the case of `CC(=O)NCCNC(=O)c1cc(-c2ccccc2)nc2c1cnn2Cc1ccccc1Cl` [Compound Z228081748] it was 50%; in that of `O=C(NCCc1nc2ccccc2[nH]1)c1cc(-c2ccccc2)nc2c1cnn2Cc1ccco1` [Compound Z228153102], 7%.
Consider `Cc1cc(-c2cc(C(=O)Nc3ccc(N4CCN(C)CC4)nc3)c3cnn(C(C)C)c3n2)c(C)o1` [Compound Z228220646], for which the “First screening IR (inhibition rate)” value is given as 15%.
Consider `O=c1[nH]c(SCc2coc(-c3ccccc3)n2)nc2sccc12` [Compound Z228473210], for which the “First screening IR (inhibition rate)” value is reported as -4%.
On to `NC(=O)COC(=O)c1cc(-c2ccccc2)nc2c1cnn2Cc1ccccc1` [Compound Z228517946], for which the “First screening IR (inhibition rate)” value was 4%.
For `CNC(=O)NC(=O)COC(=O)c1cc(-c2ccccc2)nc2c1cnn2Cc1ccccc1` [Compound Z228518838], the “First screening IR (inhibition rate)” value is recorded as -8%.
As for `Cc1cc(COC(=O)c2cc(-c3ccccc3)nc3c2cnn3Cc2ccccc2)no1` [Compound Z228519880], the “First screening IR (inhibition rate)” value is recorded as -10%.
Turning to `N#Cc1cccc(/C=C2/C(=O)Nc3ccccc32)c1` [Compound Z228595564], the “First screening IR (inhibition rate)” value came out at 8%.
With `Cc1nn(C)c2nc(-c3ccccc3)cc(C(=O)Nc3ccc4[nH]c(=O)[nH]c4c3)c12` [Compound Z228695802], the “First screening IR (inhibition rate)” value was -6%.
Consider `O=C(Nc1cccnc1)C1CCN(C(=O)c2ccc(C(F)(F)F)cc2)CC1` [Compound Z228734424], for which the “First screening IR (inhibition rate)” value is -1%.
`Cn1ncc2c(NCC3(c4ccccc4)CC3)ncnc21` [Compound Z229243940]: the “First screening IR (inhibition rate)” value was -5%.
Consider `CC(NC(=O)C(C)N1CCCN(Cc2ccc(C#N)cc2)CC1)c1ccccc1` (stereo not drawn) [Compound Z229381330], for which the “First screening IR (inhibition rate)” value is listed as -12%.
With `Cc1ccccc1-c1cc(C(N)=O)c2cnn(C(C)C)c2n1` [Compound Z229615400], the “First screening IR (inhibition rate)” value worked out at 14%.
Consider `O=C(Nc1ccc(N2CCOCC2)nc1)c1cc(-c2ccc(Cl)cc2)n[nH]1` [Compound Z229828974], for which the “First screening IR (inhibition rate)” value amounted to 8%.
For the compound `Cc1ccc(CSCC(=O)NC(Cc2ncc[nH]2)c2ccccc2)cc1` (stereo not drawn) [Compound Z230096354], the “First screening IR (inhibition rate)” value was determined as 28%.
Consider `O=C(CN1C(=O)c2ccccc2C1=O)NCc1cn(Cc2ccccc2)nc1-c1ccccc1` [Compound Z230132198], for which the “First screening IR (inhibition rate)” value was found to be 24%.
On the same count and under the same terms, in the case of `CCn1c(C)cc(C(=O)N2CCc3[nH]c4ccccc4c3C2)c1C` [Compound Z231937310] it was 6%.

The experiment is the same for the next values; noted with them: second screening, dissolved from fresh powder; n = 4; 10 μmol L−1 compound.
As to `Cn1c(=O)n(CCN2CCOCC2)c(=O)c2c1nc1n2CCN1c1ccc(Oc2ccccc2)cc1` [Compound Z223838602], the “Second screening IR (inhibition rate)” value is given as -4%.
